Experimental data reported in ChEMBL document CHEMBL3045287, “Synthesis and antimicrobial activity of morpholinyl/piperazinylbenzothiazines” (2012).

Assays:
Bacillus cereus = assay: Antimicrobial activity against Bacillus cereus at 30 ug/ml after 24 hr by well diffusion assay; assay type: functional; details: read-out: IZ
Escherichia coli = assay: Antimicrobial activity against Escherichia coli at 30 ug/ml after 24 hr by well diffusion assay; assay type: functional; details: read-out: IZ

Structure (SMILES)	zone of inhibition at 30 µg/mL (Bacillus cereus) [mm]	zone of inhibition at 30 µg/mL (Escherichia coli) [mm]
CC1=C(C(=O)N2CCN(CCO)CC2)Sc2ccccc2N1	7	9
CC1=C(C(=O)N2CCN(CCO)CC2)Sc2cc(Cl)ccc2N1	9	11
Cc1ccc2c(c1)SC(C(=O)N1CCOCC1)=C(C(C)C)N2	10	7
CC1=C(C(=O)N2CCOCC2)Sc2cc(C)ccc2N1	9	12
CC1=C(C(=O)N2CCOCC2)Sc2ccccc2N1	12	9
CC1=C(C(=O)N2CCOCC2)Sc2cc(Cl)ccc2N1	8	8
O=C(N[C@H](CO)[C@H](O)c1ccc([N+](=O)[O-])cc1)C(Cl)Cl [CHLORAMPHENICOL]	10	9
